PubChem BioAssay (NCI)
Several values for one entry are separate records, joined by “and”; a condition that tells them apart may be missing. Identical values can stand only once.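 Interpolation was linear, between the two tested concentrations surrounding the appropriate level; five concentrations were tested over 48 hours in 96-well plates. GI50 marks 50% less growth. TGI: total growth inhibition.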

Legend:
Assay in all cases: NCI-60 cell line screen, 48 h
[1] = test system: DU-145 prostate
[2] = test system: TK-10 renal
[3] = test system: LOX IMVI melanoma
[4] = test system: HCC-2998 colon
[5] = test system: SW-620 colon
[6] = test system: SF-268 CNS
[7] = test system: UACC-62 melanoma
[8] = test system: HOP-62 NSCLC
[9] = test system: SNB-19 CNS
[10] = test system: EKVX NSCLC

| SMILES | TGI [1] | GI50 [2] | GI50 [3] | TGI [3] | GI50 [4] | GI50 [5] | TGI [5] | GI50 [6] | GI50 [7] | GI50 [8] | GI50 [9] | TGI [9] | GI50 [10] | TGI [10] | GI50 [1] | TGI [2] | TGI [4] [µM] | TGI [6] | TGI [7] | TGI [8] |
| --- | --- | --- | --- | --- | --- | --- | --- | --- | --- | --- | --- | --- | --- | --- | --- | --- | --- | --- | --- | --- |
| COc1cccc2c1C(=O)c1c(O)c3c(c(O)c1C2=O)C[C@@](O)(C(=O)CO)CC3OC1CC(N)C(OC2CCCCO2)C(C)O1 (some centres not stated) | 0.0489 µM | 0.0368 µM | 0.0184 µM | 1 µM and 1.62 µM | 0.0457 µM | 0.113 µM | 1.03 µM and 7.04 µM | 0.00705 µM | 0.0205 µM | 0.0029 µM | 0.033 µM | 2.54 µM and 3.06 µM | 0.156 µM | 1.02 µM and 7.26 µM | – | – | – | – | – | – |
| O=C(/C=C/c1ccccc1)c1cccc2ccccc12 | 13 µM | 4.04 µM | 1.6 µM | 4.69 µM | 2.65 µM | 2.42 µM | 6 µM | 1.99 µM | 3.46 µM | 4.25 µM | 4.1 µM | 15.3 µM | 2.75 µM | 12.6 µM | 3.63 µM | 14.2 µM | 6.81 | 5.13 µM | 11.8 µM | 13.5 µM |
| COc1cccc2c1C(=O)c1c(O)c3c(c(O)c1C2=O)C[C@@](O)(/C(CO)=N/NC(=O)CCCCCN1C(=O)C=CC1=O)C[C@@H]3O[C@H]1C[C@H](N)[C@H](O)[C@H](C)O1 | 38.6 µM | 1.68 µM | 0.301 µM | 3.95 µM | 1.5 µM | 0.357 µM | > 49 µM | 0.648 µM | 0.621 µM | 0.674 µM | 0.465 µM | 11.4 µM | 3.1 µM | > 75.9 µM | 0.554 µM | > 27.4 µM | > 58.1 | 12.4 µM | 3 µM | 10.5 µM |
| C[C@]12CC[C@H](O[C@@H]3O[C@H](CO[C@@H]4O[C@H](CO)[C@@H](O)[C@H](O)[C@H]4O)[C@@H](O)[C@H](O)[C@H]3O)C[C@@H]1CC[C@@H]1[C@@H]2CC[C@]2(C)[C@@H](C3=CC(=O)OC3)CC[C@]12O | 26.4 µM | – | – | 65.6 µM | – | – | > 100 µM | – | – | – | – | > 100 µM | – | 40.4 µM | – | > 51.6 µM | 51 | 29.5 µM | > 80.4 µM | 31.1 µM |
| CCOc1cc(-c2nncn2C)ccc1Nc1ncc2cc(C)nc(NCC(C)(C)C)c2n1 | > 100 µM | > 100 µM | 1.1 µM | > 100 µM | > 100 µM | 0.439 µM | > 100 µM | > 100 µM | > 100 µM | > 26.2 µM | > 100 µM | > 100 µM | – | > 100 µM | > 30.7 µM | > 100 µM | > 100 | > 100 µM | > 100 µM | > 100 µM |
| COC(=O)c1c[nH]c2cc(OC(C)C)c(OC(C)C)cc2c1=O | > 100 µM | > 100 µM | > 100 µM | > 100 µM | > 100 µM | > 100 µM | > 100 µM | > 100 µM | > 100 µM | 79.6 µM | > 100 µM | > 100 µM | > 100 µM | > 100 µM | > 100 µM | > 100 µM | > 100 | > 100 µM | > 100 µM | > 100 µM |
| O=S1(=O)c2ccccc2N(c2ccccc2)c2nnnn21 | > 100 µM | – | – | 32.6 µM | – | – | 53.6 µM | – | – | – | – | 88.5 µM | – | > 100 µM | – | > 100 µM | 36.4 | > 100 µM | 37.1 µM | 45.9 µM |
| Cc1cc(O)ccc1C1=NN(c2ccc(S(N)(=O)=O)cc2)C(=O)CC1 | 50 µM and > 100 µM | > 50 µM and 15.9 µM | 10.8 µM and 29.7 µM | 50 µM and > 100 µM | > 50 µM and 63.9 µM | 2.34 µM and 8.64 µM | 50 µM and > 100 µM | 10.1 µM and 25.5 µM | 2.74 µM and 3.68 µM | 12.8 µM and 25 µM | 27.4 µM and 20.3 µM | 50 µM and > 100 µM | 3.87 µM and 19.2 µM | 50 µM and > 100 µM | 15.1 µM and 46.3 µM | > 50 µM and 52.7 µM | > 100 | 50 µM and > 100 µM | 50 µM and > 100 µM | 46 µM and 86.9 µM |
| C=C1C(=O)O[C@H]2[C@H]1CC/C(COC(=O)c1cccnc1N)=C\CC[C@@]1(C)O[C@@H]21 | 12.7 µM | 2.59 µM | 3.18 µM | 14 µM | 4.43 µM | 0.583 µM | 3.82 µM | 3.54 µM | 3.02 µM | 4.89 µM | 8.65 µM | 28.5 µM | 3.21 µM | 25.1 µM | 2.45 µM | 10.4 µM | 16.2 | 16.5 µM | 13.3 µM | 18.6 µM |
| C=CCn1c2ccccc2c2c3c(c4c5ccccc5n(CC=C)c4c21)C(=O)N(O)C3=O | > 100 µM | 6.16 µM | 0.967 µM | 2.43 µM | 4.94 µM | 4.42 µM | 29.5 µM | 3.72 µM | 1.74 µM | 2.49 µM | 4.18 µM | > 100 µM | 6.34 µM | 30.6 µM | 3.65 µM | 35.7 µM | 34 | 32.4 µM | 10.5 µM | 12.7 µM |
| C=C1c2nc3ccccc3n2C=C(c2cccc(Cl)c2)N1Cc1ccc(OC)cc1 | > 53.5 µM | 6.64 µM | 0.878 µM | 21.5 µM | 2.32 µM | 0.441 µM | > 78.2 µM | 1.05 µM | 0.937 µM | 2.35 µM | 1.04 µM | > 100 µM | 1.07 µM | 12.8 µM | 1.8 µM | > 64.9 µM | 13.5 | > 57.2 µM | 19.1 µM | 39.8 µM |
| CN(C)c1ccc(/C=C(\C#N)c2cc3ccccc3[nH]2)cc1 | 35.4 µM | 2.66 µM | 0.692 µM | > 100 µM | 6.59 µM | 0.39 µM | 61.9 µM | 2.52 µM | 0.679 µM | 1.16 µM | 2.23 µM | > 100 µM | 2.94 µM | > 100 µM | 3.41 µM | > 100 µM | > 100 | > 100 µM | > 100 µM | 4.54 µM |
| Cc1ccc(N(C=O)c2c([N+](=O)[O-])cc([N+](=O)[O-])c3c2=[N+]([O-])CN=3)cc1 | 72.9 µM | – | – | 90.3 µM | – | – | > 100 µM | – | – | – | – | > 100 µM | – | > 100 µM | – | 78.7 µM | 43.3 | > 100 µM | 29.8 µM | > 100 µM |
| CC(C)(C)[Si](C)(C)OCC1OC(n2cnc3c(=O)[nH]cnc32)CC1O (configuration not stated) | > 100 µM | – | – | > 100 µM | – | – | > 100 µM | – | – | – | – | > 100 µM | – | > 100 µM | – | > 100 µM | > 100 | > 100 µM | > 100 µM | > 100 µM |
| CC[C@@H](C)/C=C(C)/C=C/C(=O)c1c(O)c(-c2ccc(OC(=O)[C@@]34CC[C@@](C)(C(=O)O3)C4(C)C)cc2)cn(O)c1=O | > 50 µM | 1.99 µM | 0.961 µM | > 50 µM | 3.65 µM | 2.43 µM | > 50 µM | 0.888 µM | 1.16 µM | 2.05 µM | 2.66 µM | > 50 µM | 2.81 µM | > 50 µM | 0.839 µM | > 50 µM | > 50 | 6.6 µM | 2.7 µM | > 50 µM |
| Nc1ccccc1C#C/C=C\C#Cc1ccccc1C#CCO | > 50 µM | 11.8 µM | 1.36 µM | 8.97 µM | 2.95 µM | 4.4 µM | 35.8 µM | 7.6 µM | 5.69 µM | 8.35 µM | 23.9 µM | > 50 µM | 12 µM | > 50 µM | 15.8 µM | 27.5 µM | 10.6 | 24.3 µM | 15.3 µM | > 50 µM |
| Cc1ccc(/C=N/NC(=O)c2ccccc2Oc2ccccc2)o1 | > 100 µM | 71.6 µM | > 67.4 µM | > 100 µM | 65.3 µM | > 77.6 µM | > 100 µM | 42.9 µM | 17.3 µM | 70.9 µM | 48.4 µM | > 100 µM | 38.8 µM | > 100 µM | 73.2 µM | > 100 µM | > 100 | > 100 µM | > 81.2 µM | > 100 µM |
| Cn1ncc(C#N)c1-c1ccc2c(c1)CN([C@H](CN)Cc1cccc(F)c1)C2=O | > 100 µM | 0.787 µM | 20.3 µM | > 100 µM | 5.96 µM | 23.3 µM | > 100 µM | 20.1 µM | 3.17 µM | 23.6 µM | 1.15 µM | > 55.3 µM | 5.63 µM | > 92.1 µM | 21.3 µM | 24 µM | > 100 | > 100 µM | 22.6 µM | > 100 µM |
| CNC(=O)ON(C(C)=O)C(=O)NC | 135 µM | – | 65.2 µM | 119 µM | – | > 94 µM | 224 µM | – | > 88.2 µM | – | – | 359 µM | 108 µM | 241 µM | – | 70.6 µM | 272 | 323 µM | 149 µM | 309 µM |
| O=C(O)CCC(c1ccccc1)(c1ccccc1)c1ccccc1 | > 100 µM | – | – | > 100 µM | – | – | > 100 µM | – | – | – | – | > 100 µM | – | > 100 µM | – | > 100 µM | > 100 | > 92.9 µM | > 100 µM | > 100 µM |
| c1ccc(-c2[nH]ncc2-c2ccnc(-c3ccc(OCCN4CCOCC4)cc3)c2)nc1 | > 25 µM | > 25 µM | > 25 µM | > 25 µM | > 25 µM | > 25 µM | > 25 µM | > 25 µM | > 25 µM | > 25 µM | > 25 µM | > 25 µM | > 25 µM | > 25 µM | > 25 µM | > 25 µM | > 25 | > 25 µM | > 25 µM | > 25 µM |
| C/C=C(\N=C=S)C(=O)OC1C(COC(C)=O)OC([C@]2(O)CC(=O)C(=N)C(C(=O)O)=C2O)C(O)C1OC1CC(OC)C(O)([C@@H](C)OC(=O)[C@@H](C)CC)C(C)O1 (some centres not stated) | 39.2 µM | – | – | 17.2 µM | – | – | 8.33 µM | – | – | – | – | 31.5 µM | – | 30.3 µM | – | 31.4 µM | 40.1 | 23.2 µM | 10.3 µM | 45.7 µM |
